From paper PMC8507159, “Degradation of epigallocatechin and epicatechin gallates by a novel tannase TanHcw from Herbaspirillum camelliae” (Microbial Cell Factories, 2021)

System: T1, TanHcw
T1 construct: C-terminal His-tag, pET23a, E. coli BL21(DE3) pLysS; 39 kDa on gel
Assay: gallic acid release, rhodanine chromogen at […] nm; Lineweaver-Burk
Format: biochemical, Herbaspirillum camelliae
Conditions: 0.1-2.0 mM substrate

Row | Km (pH 6.0, 30 °C) | Structure (SMILES) | Km (pH 7.0, 40 °C)
1 |  | O=C(O[C@@H]1Cc2c(O)cc(O)cc2O[C@@H]1c1cc(O)c(O)c(O)c1)c1cc(O)c(O)c(O)c1 [EGCG, (–)–epigallocatechin-3-gallate] | 300 ± 10 µM
2 | 820 ± 20 µM | COC(=O)c1cc(O)c(O)c(O)c1 [MG, Methyl gallate] | 
3 |  | O=C(O[C@@H]1Cc2c(O)cc(O)cc2O[C@@H]1c1ccc(O)c(O)c1)c1cc(O)c(O)c(O)c1 [ECG, (–)–epicatechin-3-gallate] | 330 ± 10 µM
